Patent publication US20250051356A1, “RIFABUTIN ANALOGS FOR THE TREATMENT OF DISEASE” (priority 2021, published 2025)
In brackets after ≈: the same amount, converted by molar mass. Where two headings read alike, the source gives them in different places.

Key:
Assay type in all cases: cell-based
[1] = tested on: A. baumannii wild type (WT); assay: MIC against A. baumannii isolate in RPMI + FCS
[2] = tested on: A. baumannii with Arr-mediated and RpoB mutation-mediated resistance
[3] = tested on: Streptococcus pyogenes (strain IHMA 1117021); assay: MIC against S. pyogenes; conditions: CAMHB + 5% laked horse blood
[4] = tested on: Mycobacterium tuberculosis (H37Rv, strain ATCC 27294)
[5] = tested on: M. abscessus subsp. massiliense CCUG 48898; assay: MIC against M. abscessus isolate in 7H9 + ADC; conditions: for MIC: Mycobacteroides abscessus, CCUG48898
[6] = tested on: M. smegmatis (strain ATCC 700084); assay: MIC against M. smegmatis (90% growth inhibition, BacTiter-Glo); conditions: 7H9 + ADC, 20 hours
[7] = tested on: Staphylococcus epidermidis (strain ATCC 12228); assay: MIC against S. epidermidis; conditions: for MIC: Staphylococcus epidermidis, ATCC12228, CAMHB
[8] = tested on: A. baumannii RpoB H535C mutant; assay: microbe, parasite or virus in culture; conditions: for MIC: Acinetobacter baumannii, RPOBH535CMUTANT, read-out: A. baumannii MIC in RPMI + FCS, RpoB H535C
[9] = tested on: M. abscessus subsp. abscessus CCUG 71382; assay: MIC against M. abscessus isolate in 7H9 + ADC; conditions: for MIC: Mycobacteroides abscessus, CCUG71382
A. baumannii Arr-2 = assay: microbe, parasite or virus in culture; conditions: for MIC: Acinetobacter baumannii, ARR2, read-out: A. baumannii MIC in RPMI + FCS, Arr-2
[10] = tested on: A. baumannii RpoB H535Q mutant; assay: microbe, parasite or virus in culture; conditions: for MIC: Acinetobacter baumannii, RPOBH535QMUTANT, read-out: A. baumannii MIC in RPMI + FCS, RpoB H535Q
[11] = tested on: A. baumannii RpoB H535L mutant; assay: microbe, parasite or virus in culture; conditions: for MIC: Acinetobacter baumannii, RPOBH535LMUTANT, read-out: A. baumannii MIC in RPMI + FCS, RpoB H535L
[12] = tested on: M. abscessus subsp. abscessus CCUG 71636; assay: MIC against M. abscessus isolate in 7H9 + ADC; conditions: for MIC: Mycobacteroides abscessus, CCUG71636
[13] = tested on: M. abscessus subsp. abscessus ATCC 19977; assay: MIC against M. abscessus in Middlebrook 7H9 + ADC; conditions: for MIC: Mycobacteroides abscessus, ATCC19977
[14] = tested on: Enterococcus faecium (strain NCTC 12204); assay: MIC against E. faecium; conditions: for MIC: Enterococcus faecium
[15] = tested on: Enterococcus faecalis (strain ATCC 51575); assay: MIC against E. faecalis; conditions: for MIC: Enterococcus faecalis, ATCC51575, CAMHB
[16] = tested on: Hemophilus influenzae (strain ATCC 49247); assay: MIC against H. influenzae; conditions: for MIC: Haemophilus influenzae, ATCC49247, Hemophilus test medium broth
[17] = tested on: M. abscessus subsp. bolletii CCUG 50184; assay: MIC against M. abscessus isolate in 7H9 + ADC; conditions: for MIC: Mycobacteroides abscessus, CCUG50184
[18] = tested on: Streptococcus pneumoniae (strain ATCC 49619); assay: MIC against S. pneumoniae; conditions: CAMHB + 5% laked horse blood
[19] = tested on: S. aureus (UAMS-1625 strain); assay: MIC by broth microdilution against S. aureus; conditions: Staphylococcus aureus, read-out: MIC S. aureus
M. avium (ATCC 25291) = assay: MIC against M. avium in CAMHB + ADC; conditions: Mycobacterium avium, ATCC25291; ATCC 25291; CAMHB + ADC (5%); read-out: MIC M. avium
[20] = tested on: A. baumannii (HUMC1 strain); assay: MIC by broth microdilution against A. baumannii in RPMI + 10% FCS; conditions: Acinetobacter baumannii; HUMC1 strain; RPMI + 10% FCS; read-out: MIC A. baumannii
M. kansasii (ATCC 12478) = assay: MIC against M. kansasii in CAMHB + ADC; conditions: Mycobacterium kansasii, ATCC12478; ATCC 12478; CAMHB + ADC (5%); read-out: MIC M. kansasii
M. xenopi (ATCC 19250) = assay: MIC against M. xenopi in CAMHB + ADC; conditions: Mycobacterium xenopi, ATCC19250; ATCC 19250; CAMHB + ADC (5%); read-out: MIC M. xenopi
M. abscessus strains = assay: MIC over the five tested M. abscessus strains in 7H9 + ADC; conditions: Mycobacteroides abscessus, span over five isolates, read-out: MIC values against the tested M. abscessus strains
[21] = tested on: M. abscessus subsp. massiliense CCUG 48898; assay: MIC against M. abscessus isolate in CAMHB; conditions: Mycobacteroides abscessus, CCUG48898
[22] = tested on: M. abscessus subsp. abscessus ATCC 19977; assay: MIC against M. abscessus isolate in CAMHB; conditions: Mycobacteroides abscessus, ATCC19977
[23] = tested on: M. abscessus subsp. abscessus CCUG 71636; assay: MIC against M. abscessus isolate in CAMHB; conditions: Mycobacteroides abscessus, CCUG71636; read-out: M. abscessus MIC in CAMHB, abscessus CCUG 71636
[24] = tested on: M. abscessus subsp. abscessus CCUG 71382; assay: MIC against M. abscessus isolate in CAMHB; conditions: Mycobacteroides abscessus, CCUG71382
[25] = tested on: M. abscessus subsp. bolletii CCUG 50184; assay: MIC against M. abscessus isolate in CAMHB; conditions: Mycobacteroides abscessus, CCUG50184
[26] = ATCC 19977, 7H9 + ADC, read-out: MIC M. abscessus
[27] = read-out: M. abscessus MIC in 7H9 + ADC, abscessus ATCC 19977
[28] = NCTC12204, strain NCTC 12204, CAMHB, read-out: MIC E. faecium
[29] = Acinetobacter baumannii; read-out: A. baumannii MIC in RPMI + FCS, WT

CO[C@H]1/C=C/O[C@@]2(C)Oc3c(C)c(O)c4c(c3C2=O)C(=O)C(N2CCOCC2)=C(NC(=O)/C(C)=C\C=C\[C@H](C)[C@H](O)[C@@H](C)[C@@H](O)[C@@H](C)[C@H](OC(=O)CC(=O)OCC2CCCN(C)C2)[C@@H]1C)C4=O (stereo partly drawn) [CGP4832, reference compound]
antibacterial activity against A. baumannii wild type strain [1]: did not exhibit strong activity
activity against A. baumannii with Arr- and RpoB mutation-mediated resistance [2]: lost activity compared with rifabutin

CO[C@H]1/C=C/O[C@@]2(C)Oc3c(C)c(O)c4c(c3C2=O)C(=O)C(N2CCOCC2)=C(NC(=O)/C(C)=C\C=C\[C@H](C)[C@H](O)[C@@H](C)[C@@H](O)[C@@H](C)[C@H](OC(=O)CC(=O)OCC2CCCN(C)C2)[C@@H]1C)C4=O (stereo partly drawn) [CGP 4832]
A. baumannii MIC in RPMI + FCS, WT ([1]; RPMI + FCS): 8 µg/mL
MIC S. pyogenes [3]: 8 µg/mL
MIC M. tuberculosis [4]: 3.6 µg/mL (≈ 3.85 µM)
M. abscessus MIC in 7H9 + ADC, massiliense CCUG 48898 ([5]; 7H9 + ADC): 4 µg/mL
MIC M. smegmatis [6]: 30 µg/mL
MIC S. epidermidis ([7]; CAMHB): ≤2 µg/mL
A. baumannii MIC in RPMI + FCS, RpoB H535C ([8]; RPMI + FCS): >32 µg/mL
M. abscessus MIC in 7H9 + ADC, abscessus CCUG 71382 ([9]; 7H9 + ADC): 8 µg/mL
A. baumannii MIC in RPMI + FCS, Arr-2 (A. baumannii Arr-2; RPMI + FCS): 4 µg/mL
A. baumannii MIC in RPMI + FCS, RpoB H535Q ([10]; RPMI + FCS): >32 µg/mL
A. baumannii MIC in RPMI + FCS, RpoB H535L ([11]; RPMI + FCS): >32 µg/mL
M. abscessus MIC in 7H9 + ADC, abscessus CCUG 71636 ([12]; 7H9 + ADC): 2 µg/mL
M. abscessus MIC in 7H9 + ADC, abscessus ATCC 19977 ([13]; 7H9 + ADC): 4 µg/mL
MIC E. faecium ([14]; strain NCTC 12204, CAMHB): 2000 µg/mL (≈ 2140 µM)
MIC E. faecalis ([15]; CAMHB): 2000 µg/mL (≈ 2140 µM)
MIC H. influenzae ([16]; Hemophilus test medium broth): 500 µg/mL (≈ 534 µM)
M. abscessus MIC in 7H9 + ADC, bolletii CCUG 50184 ([17]; 7H9 + ADC): 8 µg/mL
MIC S. pneumoniae [18]: ≤2 µg/mL

CO[C@H]1/C=C/O[C@@]2(C)Oc3c(C)c(O)c4c(c3C2=O)C2=NC3(CCN(CC(C)C)CC3)NC2=C(NC(=O)/C(C)=C\C=C\[C@H](C)[C@H](O)[C@@H](C)[C@@H](O)[C@@H](C)[C@H](OC(=O)CC(=O)OCC2CCCN(C)C2)[C@@H]1C)C4=O (stereo partly drawn) [Compound 3]
antibacterial activity against A. baumannii wild type strain [1]: retained strong antibacterial activity
MIC ([1]; Acinetobacter baumannii, read-out: A. baumannii MIC in RPMI + FCS, WT): ≤ 0.002 µg/mL
MIC [19]: 0.06 µg/mL (≈ 0.0599 µM)
MIC (M. avium (ATCC 25291)): 1 µg/mL
MIC [5]: 2 µg/mL
MIC [20]: ≤ 0.002 µg/mL
MIC [7]: ≤ 2 µg/mL
MIC [8]: 0.008 µg/mL
MIC (M. kansasii (ATCC 12478)): 0.125 µg/mL
MIC [9]: 1 µg/mL
MIC (M. xenopi (ATCC 19250)): 1 µg/mL
MIC (A. baumannii Arr-2): ≤ 0.002 µg/mL
MIC [10]: ≤ 0.002 µg/mL
activity against A. baumannii with Arr- and RpoB mutation-mediated resistance [2]: overcame antibiotic resistance mechanisms
MIC [11]: 0.25 µg/mL
MIC [12]: 0.5 µg/mL
MIC [13, 26]: 1 µg/mL
MIC [13, 27]: 1 µg/mL
MIC [14, 28]: 1000 µg/mL (≈ 998 µM)
MIC (M. abscessus strains): 0.5 to 2 µg/mL
MIC [15]: 2000 µg/mL (≈ 2000 µM)
MIC [16]: 1000 µg/mL (≈ 998 µM)
MIC [17]: 0.5 µg/mL

CO[C@H]1/C=C/O[C@@]2(C)Oc3c(C)c(O)c4c(c3C2=O)C2=NC3(CCN(CC(C)C)CC3)NC2=C(NC(=O)/C(C)=C\C=C\[C@H](C)[C@H](O)[C@@H](C)[C@@H](O)[C@@H](C)[C@H](OC(C)=O)[C@@H]1C)C4=O [Rifabutin, rifabutin]
MIC [1, 29]: ≤ 0.002 µg/mL
MIC [19]: 0.016 µg/mL (≈ 0.0189 µM)
MIC [21]: 8 µg/mL (≈ 9.44 µM)
MIC (M. avium (ATCC 25291)): 0.125 µg/mL
MIC [22]: 16 µg/mL (≈ 18.9 µM)
MIC [5]: 2 µg/mL
MIC [23]: 2 µg/mL (≈ 2.36 µM)
MIC [20]: ≤ 0.002 µg/mL
MIC [7]: 4 µg/mL (≈ 4.72 µM)
MIC [8]: 0.03 µg/mL
MIC (M. kansasii (ATCC 12478)): 0.001 µg/mL
MIC [9]: 16 µg/mL
MIC (M. xenopi (ATCC 19250)): 0.03 µg/mL
MIC (A. baumannii Arr-2): 0.125 µg/mL
MIC [10]: 0.004 µg/mL
MIC [11]: > 32 µg/mL
MIC [12]: 4 µg/mL
MIC [24]: > 16 µg/mL
MIC [25]: 16 µg/mL (≈ 18.9 µM)
MIC [13, 26]: 8 µg/mL
MIC [13, 27]: 8 µg/mL
MIC ([14]; NCTC12204, read-out: MIC E. faecium): 125 µg/mL (≈ 148 µM)
MIC (M. abscessus strains): 2 to 16 µg/mL
MIC [15]: 4000 µg/mL (≈ 4720 µM)
MIC [16]: 500 µg/mL (≈ 590 µM)
MIC [17]: 8 µg/mL

CO[C@H]1/C=C/O[C@@]2(C)Oc3c(C)c(O)c4c(O)c(c(/C=N/N5CCN(C)CC5)c(O)c4c3C2=O)NC(=O)/C(C)=C\C=C\[C@H](C)[C@H](O)[C@@H](C)[C@@H](O)[C@@H](C)[C@H](OC(C)=O)[C@@H]1C [Rifampicin, rifampicin]
MIC [1, 29]: 32 µg/mL
MIC [5]: 32 µg/mL
MIC [7]: ≤ 2 µg/mL
MIC [8]: > 32 µg/mL
MIC [9]: > 32 µg/mL
MIC (A. baumannii Arr-2): > 32 µg/mL
MIC [10]: > 32 µg/mL
MIC [11]: > 32 µg/mL
MIC [12]: > 32 µg/mL
MIC [13, 27]: > 32 µg/mL
MIC [14, 28]: 500 µg/mL (≈ 608 µM)
MIC (M. abscessus strains): > 32 µg/mL
MIC [15]: 1000 µg/mL (≈ 1220 µM)
MIC [16]: 250 µg/mL (≈ 304 µM)
MIC [17]: > 32 µg/mL
